Experiments:
Assay in all cases: KINOMEscan competitive binding
PRKD2 = target: T1, PRKD2 (Homo sapiens, UniProt Q9BZL6); conditions: n=1, read-out: Percent inhibition, PRKD2
T1 construct: purchased DiscoverX (KINOMEscan)
T1 sequence (Q9BZL6 1-878): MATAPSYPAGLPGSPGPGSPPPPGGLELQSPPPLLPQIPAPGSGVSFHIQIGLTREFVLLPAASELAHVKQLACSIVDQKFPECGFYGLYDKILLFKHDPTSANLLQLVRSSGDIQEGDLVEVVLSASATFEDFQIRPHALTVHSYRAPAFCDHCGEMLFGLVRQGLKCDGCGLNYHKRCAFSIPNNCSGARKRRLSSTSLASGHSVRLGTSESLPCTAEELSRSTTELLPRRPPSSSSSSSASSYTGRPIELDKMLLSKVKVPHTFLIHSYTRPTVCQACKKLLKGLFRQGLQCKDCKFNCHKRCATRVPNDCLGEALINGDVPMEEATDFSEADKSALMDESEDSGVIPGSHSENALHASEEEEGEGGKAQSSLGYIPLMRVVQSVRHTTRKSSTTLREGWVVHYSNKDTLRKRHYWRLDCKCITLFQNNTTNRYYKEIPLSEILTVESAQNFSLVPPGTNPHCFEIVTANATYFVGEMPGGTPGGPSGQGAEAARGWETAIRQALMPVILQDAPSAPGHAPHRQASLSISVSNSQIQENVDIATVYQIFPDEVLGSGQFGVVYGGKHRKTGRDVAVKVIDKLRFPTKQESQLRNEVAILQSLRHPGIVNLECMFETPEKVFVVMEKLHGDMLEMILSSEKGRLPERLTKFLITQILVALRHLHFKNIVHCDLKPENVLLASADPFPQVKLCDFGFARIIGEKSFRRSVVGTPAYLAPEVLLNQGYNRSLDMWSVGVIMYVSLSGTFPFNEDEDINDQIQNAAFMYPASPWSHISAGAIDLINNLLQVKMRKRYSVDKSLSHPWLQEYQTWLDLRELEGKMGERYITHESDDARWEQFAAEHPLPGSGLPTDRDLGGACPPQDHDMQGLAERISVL

PTK2 = target: T2, PTK2 (Homo sapiens, UniProt Q05397); conditions: n=1, read-out: Percent inhibition, PTK2
T2 construct: purchased DiscoverX (KINOMEscan)
T2 sequence (Q05397 whole entry): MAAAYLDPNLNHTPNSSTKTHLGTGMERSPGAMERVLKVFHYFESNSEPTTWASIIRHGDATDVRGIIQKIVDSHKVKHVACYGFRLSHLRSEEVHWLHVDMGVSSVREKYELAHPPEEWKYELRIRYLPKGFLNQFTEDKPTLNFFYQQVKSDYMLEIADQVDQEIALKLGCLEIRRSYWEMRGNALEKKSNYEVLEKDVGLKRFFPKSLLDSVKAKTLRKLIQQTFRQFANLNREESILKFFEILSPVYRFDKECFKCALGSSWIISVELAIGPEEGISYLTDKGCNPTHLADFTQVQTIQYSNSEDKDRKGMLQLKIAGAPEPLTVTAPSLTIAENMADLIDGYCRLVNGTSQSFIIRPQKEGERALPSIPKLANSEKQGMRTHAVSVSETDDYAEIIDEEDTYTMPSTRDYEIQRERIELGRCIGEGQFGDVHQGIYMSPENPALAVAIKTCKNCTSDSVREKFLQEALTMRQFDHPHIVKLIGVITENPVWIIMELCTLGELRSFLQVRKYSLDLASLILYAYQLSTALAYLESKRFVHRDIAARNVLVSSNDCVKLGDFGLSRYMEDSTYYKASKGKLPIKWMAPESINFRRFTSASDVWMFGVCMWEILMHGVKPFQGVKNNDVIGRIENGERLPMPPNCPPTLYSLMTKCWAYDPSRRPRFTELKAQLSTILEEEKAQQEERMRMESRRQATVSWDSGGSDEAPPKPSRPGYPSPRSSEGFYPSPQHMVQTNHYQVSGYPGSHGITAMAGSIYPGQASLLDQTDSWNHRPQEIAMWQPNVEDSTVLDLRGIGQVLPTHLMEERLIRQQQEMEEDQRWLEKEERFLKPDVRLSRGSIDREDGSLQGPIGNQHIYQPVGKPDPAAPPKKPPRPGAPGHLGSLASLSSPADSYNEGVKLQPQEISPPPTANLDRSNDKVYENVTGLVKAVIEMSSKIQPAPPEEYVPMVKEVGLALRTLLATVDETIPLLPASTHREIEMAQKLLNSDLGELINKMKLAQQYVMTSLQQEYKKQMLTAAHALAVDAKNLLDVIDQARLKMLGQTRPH

RIPK2 = target: T3, RIPK2 (Homo sapiens, UniProt O43353); conditions: n=1, read-out: Percent inhibition, RIPK2
T3 construct: purchased DiscoverX (KINOMEscan)
T3 sequence (O43353 whole entry): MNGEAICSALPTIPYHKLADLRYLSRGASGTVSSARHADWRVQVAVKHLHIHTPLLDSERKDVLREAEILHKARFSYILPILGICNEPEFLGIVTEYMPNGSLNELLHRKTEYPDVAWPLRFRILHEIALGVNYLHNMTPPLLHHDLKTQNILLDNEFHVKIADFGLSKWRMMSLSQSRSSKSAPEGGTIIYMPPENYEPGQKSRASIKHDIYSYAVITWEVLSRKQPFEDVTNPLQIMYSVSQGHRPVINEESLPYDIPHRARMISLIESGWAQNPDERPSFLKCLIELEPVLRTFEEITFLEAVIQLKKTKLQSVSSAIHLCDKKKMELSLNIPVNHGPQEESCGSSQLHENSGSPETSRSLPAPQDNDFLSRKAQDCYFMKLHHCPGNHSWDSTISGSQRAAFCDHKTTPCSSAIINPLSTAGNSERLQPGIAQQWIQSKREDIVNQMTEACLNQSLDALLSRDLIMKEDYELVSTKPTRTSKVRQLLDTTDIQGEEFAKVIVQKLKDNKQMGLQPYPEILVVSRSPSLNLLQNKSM

YANK2 = target: T4, YANK2 (Homo sapiens, UniProt Q9NY57); conditions: n=1, read-out: Percent inhibition, YANK2
T4 construct: purchased DiscoverX (KINOMEscan)
T4 sequence (Q9NY57 whole entry): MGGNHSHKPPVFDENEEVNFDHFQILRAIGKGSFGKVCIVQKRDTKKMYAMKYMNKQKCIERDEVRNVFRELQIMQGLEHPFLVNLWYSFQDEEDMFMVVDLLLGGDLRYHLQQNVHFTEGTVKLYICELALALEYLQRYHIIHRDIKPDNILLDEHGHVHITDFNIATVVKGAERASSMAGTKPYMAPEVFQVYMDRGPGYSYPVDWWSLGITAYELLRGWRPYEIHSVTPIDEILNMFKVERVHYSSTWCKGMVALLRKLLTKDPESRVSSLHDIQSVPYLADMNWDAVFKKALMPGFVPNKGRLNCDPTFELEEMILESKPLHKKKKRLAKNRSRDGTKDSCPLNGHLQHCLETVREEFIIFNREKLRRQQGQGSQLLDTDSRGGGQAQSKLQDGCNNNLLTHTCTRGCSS

TNK1 = target: T5, TNK1 (Homo sapiens, UniProt Q13470); conditions: n=1, read-out: Percent inhibition, TNK1
T5 construct: purchased DiscoverX (KINOMEscan)
T5 sequence (Q13470 1-666): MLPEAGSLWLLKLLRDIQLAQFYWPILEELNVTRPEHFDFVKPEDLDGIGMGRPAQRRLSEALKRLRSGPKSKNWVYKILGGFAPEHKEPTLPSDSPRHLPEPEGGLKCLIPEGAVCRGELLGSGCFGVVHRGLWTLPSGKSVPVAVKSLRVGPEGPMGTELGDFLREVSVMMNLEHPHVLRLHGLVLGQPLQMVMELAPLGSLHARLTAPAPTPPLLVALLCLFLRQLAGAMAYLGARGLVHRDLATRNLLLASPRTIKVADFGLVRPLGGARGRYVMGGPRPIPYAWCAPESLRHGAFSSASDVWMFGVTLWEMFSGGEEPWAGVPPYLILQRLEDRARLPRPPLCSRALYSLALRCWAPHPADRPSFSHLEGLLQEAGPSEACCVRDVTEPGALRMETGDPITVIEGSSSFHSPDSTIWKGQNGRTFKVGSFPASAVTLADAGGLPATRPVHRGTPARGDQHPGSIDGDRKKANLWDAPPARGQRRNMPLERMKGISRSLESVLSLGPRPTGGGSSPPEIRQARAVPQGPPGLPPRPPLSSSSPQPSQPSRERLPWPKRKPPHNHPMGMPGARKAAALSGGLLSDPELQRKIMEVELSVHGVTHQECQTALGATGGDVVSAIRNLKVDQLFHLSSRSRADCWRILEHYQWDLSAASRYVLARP

YSK1 = target: T6, YSK1 (Homo sapiens, UniProt O00506); conditions: n=1, read-out: Percent inhibition, YSK1
T6 construct: purchased DiscoverX (KINOMEscan)
T6 sequence (O00506 whole entry): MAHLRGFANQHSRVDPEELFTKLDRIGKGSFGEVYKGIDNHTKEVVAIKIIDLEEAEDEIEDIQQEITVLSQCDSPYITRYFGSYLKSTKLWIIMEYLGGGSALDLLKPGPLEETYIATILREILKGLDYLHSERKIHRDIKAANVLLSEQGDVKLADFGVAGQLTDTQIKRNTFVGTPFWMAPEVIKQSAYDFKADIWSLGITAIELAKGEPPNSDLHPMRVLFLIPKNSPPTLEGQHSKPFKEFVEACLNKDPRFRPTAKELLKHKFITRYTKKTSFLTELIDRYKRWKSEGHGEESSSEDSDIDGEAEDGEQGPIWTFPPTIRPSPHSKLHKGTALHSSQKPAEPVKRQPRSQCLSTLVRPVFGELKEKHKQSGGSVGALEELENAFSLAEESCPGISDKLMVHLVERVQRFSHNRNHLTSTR

PKAC-alpha = target: T7, PKAC-alpha (Homo sapiens, UniProt P17612); conditions: n=1, read-out: Percent inhibition, PKAC-alpha
T7 construct: purchased DiscoverX (KINOMEscan)

PTK2B = target: T8, PTK2B (Homo sapiens, UniProt Q14289); conditions: n=1, read-out: Percent inhibition, PTK2B
T8 construct: purchased DiscoverX (KINOMEscan)
T8 sequence (Q14289 whole entry): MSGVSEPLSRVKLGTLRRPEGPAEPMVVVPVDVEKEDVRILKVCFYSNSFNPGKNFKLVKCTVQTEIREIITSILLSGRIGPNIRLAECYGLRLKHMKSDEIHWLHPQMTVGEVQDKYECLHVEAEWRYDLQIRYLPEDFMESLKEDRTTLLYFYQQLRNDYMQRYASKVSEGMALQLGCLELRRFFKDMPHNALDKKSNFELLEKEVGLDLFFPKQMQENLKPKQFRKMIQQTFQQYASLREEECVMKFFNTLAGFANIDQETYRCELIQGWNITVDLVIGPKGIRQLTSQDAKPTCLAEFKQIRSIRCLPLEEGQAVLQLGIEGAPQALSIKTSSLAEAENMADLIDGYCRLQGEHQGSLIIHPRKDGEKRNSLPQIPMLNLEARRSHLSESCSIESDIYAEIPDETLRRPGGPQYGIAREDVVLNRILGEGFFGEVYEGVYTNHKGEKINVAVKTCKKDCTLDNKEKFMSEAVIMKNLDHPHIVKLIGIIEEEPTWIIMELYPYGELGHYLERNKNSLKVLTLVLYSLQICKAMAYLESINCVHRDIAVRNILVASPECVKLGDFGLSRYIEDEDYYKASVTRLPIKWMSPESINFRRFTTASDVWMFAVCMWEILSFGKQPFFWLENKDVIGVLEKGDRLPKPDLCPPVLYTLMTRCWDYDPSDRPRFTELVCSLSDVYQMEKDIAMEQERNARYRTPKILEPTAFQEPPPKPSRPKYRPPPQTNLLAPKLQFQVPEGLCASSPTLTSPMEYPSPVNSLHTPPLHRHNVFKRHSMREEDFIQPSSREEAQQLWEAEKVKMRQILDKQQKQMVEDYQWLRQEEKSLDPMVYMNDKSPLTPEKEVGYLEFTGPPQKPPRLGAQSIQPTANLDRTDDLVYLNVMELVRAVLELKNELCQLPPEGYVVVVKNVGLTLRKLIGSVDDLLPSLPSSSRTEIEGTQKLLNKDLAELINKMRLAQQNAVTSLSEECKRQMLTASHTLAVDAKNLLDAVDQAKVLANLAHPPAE

ULK3(mouse) = target: T9, ULK3(mouse) (Mus musculus, UniProt Q3U3Q1); conditions: n=1, read-out: Percent inhibition, ULK3(mouse)
T9 construct: purchased DiscoverX (KINOMEscan)
T9 sequence (Q3U3Q1 1-472): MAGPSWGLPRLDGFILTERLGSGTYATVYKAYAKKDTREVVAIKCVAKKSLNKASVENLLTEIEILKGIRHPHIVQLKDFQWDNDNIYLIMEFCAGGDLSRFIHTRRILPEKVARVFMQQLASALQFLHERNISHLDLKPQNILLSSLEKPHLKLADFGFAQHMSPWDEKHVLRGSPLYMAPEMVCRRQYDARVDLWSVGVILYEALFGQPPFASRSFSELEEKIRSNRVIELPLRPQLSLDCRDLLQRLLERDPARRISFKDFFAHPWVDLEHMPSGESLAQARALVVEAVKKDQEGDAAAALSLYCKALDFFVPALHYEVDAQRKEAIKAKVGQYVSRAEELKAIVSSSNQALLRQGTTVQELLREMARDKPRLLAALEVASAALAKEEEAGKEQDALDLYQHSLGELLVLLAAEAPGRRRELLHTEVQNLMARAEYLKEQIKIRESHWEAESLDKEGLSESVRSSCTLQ

PCTK1 = target: T10, PCTK1 (Homo sapiens, UniProt Q00536); conditions: n=1, read-out: Percent inhibition, PCTK1
T10 construct: purchased DiscoverX (KINOMEscan)
T10 sequence (Q00536 whole entry): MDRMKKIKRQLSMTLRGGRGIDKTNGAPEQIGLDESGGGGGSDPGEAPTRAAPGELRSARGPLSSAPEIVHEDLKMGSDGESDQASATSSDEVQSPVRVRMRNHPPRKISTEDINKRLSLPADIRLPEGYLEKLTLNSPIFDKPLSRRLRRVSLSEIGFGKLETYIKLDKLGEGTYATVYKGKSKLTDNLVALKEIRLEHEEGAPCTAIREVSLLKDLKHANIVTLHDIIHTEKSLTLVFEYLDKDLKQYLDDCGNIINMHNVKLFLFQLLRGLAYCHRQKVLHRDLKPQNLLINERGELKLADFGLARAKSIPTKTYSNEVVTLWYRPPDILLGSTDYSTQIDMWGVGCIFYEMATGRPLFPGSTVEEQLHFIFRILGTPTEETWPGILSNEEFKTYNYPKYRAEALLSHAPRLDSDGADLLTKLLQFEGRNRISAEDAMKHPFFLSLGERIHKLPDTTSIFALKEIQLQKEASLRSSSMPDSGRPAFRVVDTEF

| SMILES | inhibition at 10 µM (PRKD2) [%] | inhibition at 10 µM (PTK2) [%] | inhibition at 10 µM (RIPK2) [%] | inhibition at 10 µM (YANK2) [%] | inhibition at 10 µM (TNK1) [%] | inhibition at 10 µM (YSK1) [%] | inhibition at 10 µM (PKAC-alpha) [%] | inhibition at 10 µM (PTK2B) [%] | inhibition at 10 µM (ULK3(mouse)) [%] | inhibition at 10 µM (PCTK1) [%] |
| --- | --- | --- | --- | --- | --- | --- | --- | --- | --- | --- |
| CN1CCN(c2ccc(Nc3nccc(-c4cnn5ncccc45)n3)cc2C#N)CC1 [Compound 1] | 0 | 87.2 | 90.6 | 0 | 87.1 | 90.8 | 0 | 83.9 | 97.1 | 100 |
| COc1ccc(Nc2nccc(-c3cnn4ncccc34)n2)cc1 [Compound 2] | 75.3 | 99.3 | 0 | 0 | 90.2 | 0 | 0 | 89.6 | 92.5 | 100 |
| Cc1ccc(O)cc1Nc1ccnc(Nc2cccc(C(N)=O)c2)n1 [Compound 3] | 87.1 | 0 | 100 | 0 | 80.1 | 0 | 0 | 83.8 | 91.5 | 0 |
| Cc1ccc(O)cc1N(C)c1ccnc(Nc2cccc(S(N)(=O)=O)c2)n1 [Compound 4] | 96.6 | 93.4 | 100 | 94.5 | 87.7 | 0 | 68.9 | 99 | 98.8 | 96.9 |
| Fc1cccc(COc2ccc(Nc3ncnc4c3CN(CCN3CCOCC3)CC4)cc2Cl)c1 [Compound 6] | 0 | 0 | 0 | 0 | 0 | 0 | 0 | 0 | 0 | 0 |
| COc1cc(Nc2nccc(-c3sc(N)nc3-c3cccc(NC(=O)c4c(F)cccc4F)c3)n2)cc(OC)c1OC [Compound 7] | 100 | 97 | 100 | 93 | 100 | 96.3 | 0 | 99.9 | 100 | 0 |
| C[C@@H](Oc1cc(-c2cnc3ccccn23)sc1C(N)=O)c1ccccc1Cl [Compound 8] | 0 | 0 | 0 | 0 | 0 | 0 | 0 | 0 | 0 | 0 |
| c1ccc(COc2cccc(-c3ccnc4[nH]ccc34)c2)cc1 [Compound 9] | 0 | 0 | 0 | 0 | 0 | 0 | 0 | 0 | 0 | 0 |
| Clc1ccc(Nc2ncc(-c3ccccc3)s2)cc1 [Compound 10] | 0 | 0 | 0 | 0 | 0 | 0 | 0 | 0 | 0 | 0 |
| Nc1ncc2c(-c3ccncc3)c[nH]c2n1 [Compound 11] | 0 | 0 | 0 | 0 | 0 | 0 | 0 | 0 | 91.7 | 78.2 |
